# Experimental data published in US11802107B2, “Compounds and methods of use” (Signum Biosciences, Inc., priority 2017, dated 2023).
# Tests used:
# IL-31 = test: Anti-CD3/CD28+IL-4-induced IL-31 on PBMCs; type: cell-based; conditions: Homo sapiens, PBMC, anti-CD3/CD28 beads + 50 ng/mL IL-4, 48 hours, ELISA, read-out: TCR/IL-4-PBMCs IL-31 IC50
# Procedure: (§1) Cryopreserved human Peripheral Blood Mononuclear cells (PBMCs) from healthy adult donors were obtained from Zen Bio, Inc (Cat No. SER-PBMC-F). Cells were cultured in 96-well plates with lymphocyte media (Cat No. LYMPH-1) and were pre-treated with test materials (≤100 μM) for 2 hours and later co-treated with test materials and anti-CD3/CD28 beads (Thermo-Fisher; Cat No. 11131D) and 50 ng/mL recombinant human IL-4 (R&D Systems® #204-IL) for 48 hours at 37° C. and 5% CO2. After incubation, cell media supernatants were harvested and used to measure cytokine levels (IL-22, IL-31) using ELISA kits (R&D Systems® #DY782, #DY2824). Results were represented as percent of inhibition relative to untreated and anti-CD3/CD28+IL-4 only treated cells. IC50 values were determined by non-linear regression analysis using the four-parameter logistic equation.
# Swiss Webster (ICR) mice = test: TPA-induced skin irritation in vivo model (mouse ear); conditions: 24 hour
# Procedure: Outbred male Swiss Webster (ICR) mice were purchased from Hilltop Lab Animals (Scottdale, PA) and were used between 10 and 12 weeks of age and we followed a similar protocol previously described (Gordon et al., 2008). Mice received 1.2 μg/20 μl TPA dissolved in acetone (10 μl applied both to the dorsal and ventral surfaces of the mouse ear using a solvent pipette) to each ear to induce acute irritation (6 per group). Test Materials were co-treated with TPA or applied 5 minutes after TPA dose, at various concentrations (0.6 to 800 μg/20 μl) in ethanol. After 24 hour treatment, edema was measured by ear thickness.
# LPS-induced cytokines = LPS-induced cytokines on PBMCs; type: cell-based, human; conditions: LPS instead of anti-CD3/CD28 beads
# Procedure: as §1, with “at 1:0.4 PBMC:bead ratio” for “and 50 ng/mL recombinant human IL-4 (R&D Systems® #204-IL)”, “24” for “48”, “(IL-4, IL-5, IL-10)” for “(IL-22, IL-31)”, “(BD Biosciences® #555194, #555157; R&D” for “(R&D”, “#DY317).” for “#DY782, #DY2824).”, “anti-CD3/CD28 beads-only” for “anti-CD3/CD28+IL-4 only”
# By a similar method, but instead of anti-CD3/CD28 beads (Thermo-Fisher; Cat No. 11131D), compounds A, C, T and E were treated with LPS (Sigma Aldrich, Cat. No. LF4321) to measure inhibition of LPS-induced cytokines, and compounds C and T were treated with PHA-L (Sigma Aldrich, Cat No. 11249738001) to measure inhibition of PHA-induced cytokines.
# P. acnes (ATCC 6919) = test: Minimal inhibitory concentration (MIC) against P. acnes; type: cell-based, Propionibacterium acnes; conditions: Cutibacterium acnes, ATCC6919, 72 h, P. acnes ATCC 6919, 10^6 CFU/mL, read-out: MIC
# Procedure: To determine minimal inhibitory concentration (MIC), reagents were dissolved in vehicle (5% v/v) and then added to bacteria suspension. P. acnes (ATCC® 6919TM) at 10^6 CFU/mL was incubated with test materials at the concentrations of two-fold serial dilution (0.25-500 μg/mL) and incubated for 72 hours (P. acnes).
# DEFB103 (hBD3) = test: NHEK antimicrobial peptide gene expression, hBD3; type: cell-based, human; conditions: 10 μM, 24 hours, qPCR, normalized to GAPDH
# Procedure: (§2) Normal human epidermal keratinocytes (NHEKs) from neonatal donors were obtained from Thermo-Fisher (Cat No. C-001-5C). Cells were cultured in 6-well plates for 24 hours before treatments with EpiLife media (Cat No. MEPI500CA) supplemented with keratinocytes growth supplement (Cat No. 50015). On Day 2, media was removed and incubated with test materials (10 μM) for 24 hours at 37° C. and 5% CO2. On Day 3, total RNA was extracted from cells using the RNAqueous® kit (Ambion®; Cat No. 1912) and cDNA was obtained using the High Capacity RNA-to-cDNA kit (Applied Biosystems®; Cat No. 4387406). Quantitative PCR (qPCR) was performed using the TaqMan® Fast Advanced Master Mix (Applied Biosystems®; Cat No. 4444556) and specific TaqMan®-probes human gene primers DEFB4B (hBD2), DEFB103 (hBD3), HCAP18 and GAPDH to calculate the relative gene fold expression change per treatment. Gene expression analysis was performed using the comparative Ct method (also known as the 2-[delta][delta]Ct) approach by comparing the Ct values of the treated samples with the untreated samples and normalized to GAPDH gene expression as endogenous housekeeping gene. Results were represented as fold-expression/untreated cells.
# HCAP18 = test: NHEK antimicrobial peptide gene expression, hCAP18; type: cell-based, human; conditions: 10 μM, 24 hours, qPCR, normalized to GAPDH
# Procedure: as §2
# IL-8 = test: P. acnes-induced IL-8 protein on human PBMCs (ELISA); type: cell-based; conditions: PBMCs + live P. acnes 1:1, test material 30 PM, 24 hours
# Procedure: Cryopreserved human Peripheral Blood Mononuclear cells (PBMCs) from healthy adult donors were obtained from Zen Bio, Inc (Cat No. SER-PBMC-F). Cells were cultured in 12-well plates with lymphocyte media (Cat No. LYMPH-1) and incubated with test materials ([…]) and live P. acnes (ATCC® 6919TM) at 1:1 PBMC: P. acnes bacteria ratio for 24 hours at 37° C. and 5% CO2. After incubation, cell media supernatants were harvested and used to measure pro-inflammatory cytokine levels (IL-8, TNF-α, IL-1b, IL-17) using ELISA kits (BD Biosciences® #557966, #555212, #555244; R&D Systems® #DY317). Total RNA was extracted from cells using the RNAqueous® kit (Ambion®; Cat No. 1912) and cDNA was obtained using the High Capacity RNA-to-cDNA kit (Applied Biosystems®; Cat No. 4387406). Quantitative PCR (qPCR) was performed using the TaqMan® Fast Advanced Master Mix (Applied Biosystems®; Cat No. 4444556) and specific TaqMan®-probes human gene primers CXCL8 (IL-8), IL1B (IL-1b), TNF (TNF-α), IL17A (IL-17A) and GAPDH to calculate the relative gene fold expression change per treatment. Gene expression analysis was performed using the comparative Ct method (also known as the 2-[delta][delta]Ct) approach by comparing the Ct values of P. acnes-only treated cells with the untreated samples and normalized to GAPDH gene expression as endogenous housekeeping gene.
# [1] = topical @ 1% w/v, ear thickness
SMILES,IC50 (IL-31),MIC (P. acnes (ATCC 6919)),"Edema (% inhibition) (Swiss Webster (ICR) mice; topical, AN2728 at 2%)",inhibition of LPS-induced cytokines (LPS-induced cytokines),Edema (% inhibition) (Swiss Webster (ICR) mice; [1]),hBD3 gene expression (DEFB103 (hBD3)),hCAP18 gene expression (HCAP18),IL-8 Protein % inhibition (IL-8),MPO (% inhibition) (Swiss Webster (ICR) mice; topical @ 1% w/v)
"N#Cc1ccc(Oc2ccc3c(c2)COB3O)cc1 [AN2728, reference compound]",0.008 nM,–,43%,–,–,–,–,–,–
C/C(=C\CSCC(NC(=O)NCC(=O)O)C(=O)O)CCCC(C)CCCC(C)CCCC(C)C (stereo not drawn) [A],–,10 µg/mL,–,did not show significant inhibition,50%,–,–,–,–
C/C(=C\CSCC(NC(=O)N(CC(=O)O)CC(=O)O)C(=O)O)CCCC(C)CCCC(C)CCCC(C)C (stereo not drawn) [Compound G],–,4 µg/mL,–,–,–,4.7 Fold-expression/untreated cells,0.6 Fold-expression/untreated cells,74%,–

# Further compounds by falling MIC (P. acnes (ATCC 6919)), results first:
IC50 (IL-31),MIC (P. acnes (ATCC 6919)),SMILES,"Edema (% inhibition) (Swiss Webster (ICR) mice; topical, AN2728 at 2%)",inhibition of LPS-induced cytokines (LPS-induced cytokines),Edema (% inhibition) (Swiss Webster (ICR) mice; [1]),hBD3 gene expression (DEFB103 (hBD3)),hCAP18 gene expression (HCAP18),IL-8 Protein % inhibition (IL-8),MPO (% inhibition) (Swiss Webster (ICR) mice; topical @ 1% w/v)
1 nM,22 µg/mL,C/C(=C\CSC[C@H](NC(=O)COCC(=O)O)C(=O)O)CCCC(C)CCCC(C)CCCC(C)C (stereo partly drawn) [Compound T],–,did not show significant inhibition,61%,–,–,–,83%
–,6 µg/mL,"C/C(=C\CSC[C@H](NC(=O)N(C)CC(=O)O)C(=O)O)CCCC(C)CCCC(C)CCCC(C)C (stereo partly drawn) [Compound C, (2R)-2-{[(carboxymethyl)(methyl)carbamoyl]amino}-3-{[(2E)-3,7,11,15-tetramethylhexadec-2-en-1-yl]sulfanyl}propanoic acid]",–,did not show significant inhibition,64%,9.5 Fold-expression/untreated cells,0.5 Fold-expression/untreated cells,8%,88%
1 nM,5 µg/mL,C/C(=C\CSC[C@H](NC(=O)N1CCC[C@H]1C(=O)O)C(=O)O)CCCC(C)CCCC(C)CCCC(C)C (stereo partly drawn) [Compound E],–,did not show significant inhibition,–,2.9 Fold-expression/untreated cells,0.7 Fold-expression/untreated cells,67%,–
